Earlier results as cited in publication PMC5571359, “Screening the Medicines for Malaria Venture Pathogen Box across Multiple Pathogens Reclassifies Starting Points for Open-Source Drug Discovery” (Antimicrobial Agents and Chemotherapy, 2017).
Where two headings read alike, the source gives them in different places.

Tests used:
P. falciparum ABS = conditions: cited from earlier work; for EC50: ChEMBL Data; for IC50: read-out: Pf 3D7 Pbox IC50
liver stage = conditions: cited from earlier work
HepG2 = conditions: cited from earlier work
[1] = TCMDC, read-out: TCMDC (ref 93) EX50
[2] = Pf 3D7, ref Pathogen Box supporting information
[3] = liver stage, ref Pathogen Box supporting information, read-out: LIVER STAGE Pbox IC50
[4] = read-out: HepG2 PBox CC50 µM, HepG2 CC50, ref Pathogen Box supporting information
[5] = P. falciparum, read-out: TCMDC (ref 93) EX50
[6] = P. falciparum 3D7, ref PBox supporting information
[7] = ref Pbox supporting information
[8] = read-out: HepG2 PBox CC50 µM, ref PBox supporting information
[9] = P. falciparum, read-out: NITD (ref 94) EC50

| SMILES | EC50 (P. falciparum ABS; [1]) [nM] | IC50 (P. falciparum ABS; [2]) [nM] | IC50 (liver stage; [3]) [µM] | CC50 (HepG2; [4]) [µM] | CC50 (HepG2) [µM] | EC50 (P. falciparum ABS; [5]) [nM] | IC50 (P. falciparum ABS; [6]) [nM] | IC50 (liver stage; [7]) [µM] | CC50 (HepG2; [8]) [µM] | EC50 (P. falciparum ABS; [9]) [nM] |
| --- | --- | --- | --- | --- | --- | --- | --- | --- | --- | --- |
| Cc1ccc(S(=O)(=O)N2CCN(C(=O)c3cc(-c4ccccc4)n[nH]3)CC2)cc1 [MMV019742] | 600 | 1040 | 0.63 | > 10 |  |  |  |  |  |  |
| CC1CC1C(=O)NC1CCN(CC2(c3ccccc3)CCCCC2)CC1 (stereo not shown) [MMV020120] | 640 | 580 | 2.25 | > 10 |  |  |  |  |  |  |
| Cc1cc(C(=O)Nc2ccc(-c3ccccc3)cc2)no1 [MMV020152] | 690 | 820 | > 10 | > 10 |  |  |  |  |  |  |
| Cc1ccc(NC(=O)c2cc(S(=O)(=O)NC(C)(C)C)ccc2C)nc1 [MMV020289] | 760 | 930 | 7.35 | > 7.5 |  |  |  |  |  |  |
| Cc1nnc(NC(=O)c2cn(-c3ccccc3)nc2-c2ccccc2C)o1 [MMV020320] | 570 | 710 | 0.17 | > 10 |  |  |  |  |  |  |
| Cc1ccc(Oc2ccc(NC(=O)CNc3ccccc3N3CCCC3=O)cc2)cc1 [MMV020512] | 370 | 480 | 9.1 | 9.8 |  |  |  |  |  |  |
| O=C(NC1CC1)c1ccc(N2CCOc3ccc(Cl)cc32)s1 [MMV020537] | 800 | 1030 | 3.48 | > 10 |  |  |  |  |  |  |
| CC(C)C(NC(=O)Cc1cccc2ccccc12)C(=O)Nc1cccc(C#N)c1 (stereo not shown) [MMV020591] | 660 | 960 | 9.15 | > 10 |  |  |  |  |  |  |
| Cc1nc(-c2cccc(NCc3ccccc3)c2)[nH]c1C [MMV023227] | 860 | 1940 | 4.59 | > 10 |  |  |  |  |  |  |
| O=C(NC1CCN(c2ccnc3ccccc23)C1)c1cccc(C(F)(F)F)c1 (stereo not shown) [MMV023388] | 900 | 710 | 6.54 | > 10 |  |  |  |  |  |  |
| CN(C)CCNC(=O)N1CCCN(c2ncnc3cc(-c4ccccc4)sc23)CC1 [MMV024195] | 790 | 1580 | 1.97 | > 10 |  |  |  |  |  |  |
| O=C(NC1CC1)c1ccc(N2CCC(Cc3ccccc3)CC2)nc1 [MMV024397] | 760 | 1330 | 1.41 | > 10 |  |  |  |  |  |  |
| O=C(Nc1cccc(Cl)c1)c1cnc(N2CCN(c3ccncc3)CC2)c(Cl)c1 [MMV024406] | 960 | 830 | 2.35 | > 10 |  |  |  |  |  |  |
| Cc1cccc(C(=O)Nc2ccnc(N(C)C3CCN(CC(C)C)CC3)c2)c1 [MMV024829] | 870 | 2100 | > 10 |  | > 10 |  |  |  |  |  |
| O=C(Nc1ccc(N2CCNCC2)nc1)c1oc(-c2ccccc2)nc1C(F)(F)F [MMV024937] | 980 | 1220 | 2.55 | > 10 |  |  |  |  |  |  |
| Nc1nccc2ccc(Oc3ccncc3)cc12 [MMV026313] |  |  |  |  |  | 480 | 230 | > 10 | > 10 |  |
| FC(F)(F)c1cccc(-c2nc3c(NCc4ccncc4)nccc3[nH]2)c1 [MMV032967] |  |  |  |  |  |  | 510 | > 10 | > 10 |  |
| O=C1N(Cc2cc3ccccc3s2)CC2CN(Cc3ccccc3)CCN12 (stereo not shown) [MMV084603] |  |  |  |  |  |  | 1160 | 0.2 | > 10 | 440 |
| COc1cncc(-c2cncc(N3CCN(c4ccncc4)CC3)n2)c1 [MMV085071] |  |  |  |  |  |  | 100 | > 7.5 | > 10 | 80 |
| COc1cccc(-c2cc3c(Nc4cccnc4)nccc3[nH]2)c1 [MMV392832] |  |  |  |  |  |  | 1280 | > 10 | > 10 |  |
| CCOc1ccccc1NC(C)C(=O)Nc1cc(C(F)(F)F)ccc1N1CCOCC1 (stereo not shown) [MMV407834] |  |  |  |  |  |  | 420 | > 10 | > 10 |  |
| CN1CCN(c2nccc3nc(-c4ccc(F)c(F)c4)[nH]c23)CC1 [MMV676260] |  |  |  |  |  |  | 1130 | > 10 | > 10 |  |
| C[C@H](C(N)=O)N1CCCC[C@H]1c1ccc(OCc2cccc(F)c2)cc1 [MMV676269] |  |  |  |  |  | 990 | > 2000 | 1.36 | > 10 |  |
